Two compounds from DBAASP can be followed below.

Test systems include Acinetobacter sp. M13523; Staphylococcus warneri; Escherichia coli PCOS 15; Escherichia coli M5306; Acinetobacter sp. M9013; Staphylococcus cohnii; Acinetobacter sp. M5949; Escherichia coli M9884; Acinetobacter sp. M9665.
Assay in all cases: ≥ marks a high value that may be exact or a test limit, other limits are often not marked, values filed in µg/mL are converted to µM
Assay [1] deals with Klebsiella pneumoniae M9491.
The subject of assay [2] is Staphylococcus epidermidis M2921.
Assay [3] relates to Staphylococcus hominis M2967.
In assay [4] the test system is Enterococcus gallinarum M2685.
Assay [5] concerns Enterococcus faecium PZAP 95.
The subject of assay [6] is Staphylococcus aureus ATCC 25923.
For assay [7], the system named is Klebsiella pneumoniae M9170.
Assay [8] concerns Escherichia coli ATCC 25922.
Assay [9] deals with Pseudomonas aeruginosa ATCC 27853.
Assay [10] concerns Staphylococcus hominis M2973.
Assay [11] relates to Klebsiella pneumoniae PFAV 3.
Assay [12] concerns Klebsiella pneumoniae M13540.
Assay [13] relates to Staphylococcus aureus M6784.
The test system of assay [14] is Pseudomonas aeruginosa PACO12.
Assay [15] relates to Klebsiella pneumoniae M5825.
The test system of assay [16] is Staphylococcus aureus P204.
Assay [17] concerns Staphylococcus haemolyticus M2976.
Assay [18] relates to Enterococcus gallinarum M2723.
Assay [19] deals with Enterococcus faecalis M4899.
For assay [20], the system named is Enterococcus faecalis ATCC 51299.
The subject of assay [21] is Enterococcus faecalis ATCC 29212.
For assay [22], the system named is Staphylococcus aureus P33.
For assay [23], the system named is Staphylococcus saprophyticus M4070.
In assay [24] the test system is Staphylococcus epidermidis M2923.
In assay [25] the test system is Staphylococcus saprophyticus M2981.
The test system of assay [26] is Enterococcus faecium M2664.
Assay [27] deals with Enterococcus faecalis M6534.
The test system of assay [28] is Staphylococcus aureus ATCC 43300.
Assay [29] deals with Staphylococcus aureus ATCC BAA-39.
For assay [30], the system named is Salmonella enterica subsp. enterica serovar Enteritidis ATCC 13076.
Assay [31] concerns Klebsiella pneumoniae ATCC 13883.
Assay [32] has as its system Listeria monocytogenes ATCC 19115.

Values after ≈ are worked out from the molar mass of the structure shown. Values joined by “and” are separate entries in the source; they are usually repeats but may differ in a detail not shown here. Equal entries are not always repeated.

In the case of `CC[C@H](C)[C@H](NC(=O)[C@H](CCCN=C(N)N)NC(=O)[C@H](CCCCN)NC(=O)[C@H](Cc1ccccc1)NC(=O)[C@H](CCC(=O)O)NC(=O)[C@H](CCCCN)NC(=O)[C@H](Cc1c[nH]c2ccccc12)NC(=O)[C@H](CCCCN)NC(=O)[C@H](CCCCN)NC(=O)[C@H](CC(C)C)NC(=O)[C@H](Cc1c[nH]c2ccccc12)NC(=O)[C@H](CCCCN)NC(=O)[C@H](CCCCN)NC(=O)[C@H](CC(C)C)NC(=O)[C@H](CC(C)C)NC(=O)CN)C(=O)N[C@H](C(=O)NCC(=O)N[C@@H](Cc1ccc(O)cc1)C(N)=O)C(C)C` [GLLKKWLKKWKEFKRIVGY], the minimal inhibitory concentration (MIC) (in general, the least concentration at which growth counts as inhibited) came to 26.4 µM (≈ 64 µg/mL) in assay [1]; 3.3 µM (≈ 8 µg/mL) in assay [2]; 3.3 µM (≈ 8 µg/mL) in [3]; 6.61 µM (≈ 16 µg/mL) in assay [4]; 6.61 µM (≈ 16 µg/mL) in assay [5]; 26.4 µM (≈ 64 µg/mL) in assay [6]. Also, the MIC is 13.2 µM (≈ 32 µg/mL) in assay [7]; 13.2 µM (≈ 32 µg/mL) in assay [8]; 26.4 µM (≈ 64 µg/mL) in [9]; 1.65 µM (≈ 4 µg/mL) in assay [10]; 1.65 µM (≈ 4 µg/mL) against Acinetobacter sp. M13523; ≥ 52.9 µM in assay [11]. For the same compound, the minimal inhibitory concentration (MIC) in assay [12] amounted to 6.61 µM (≈ 16 µg/mL); with Staphylococcus warneri it was 3.3 µM (≈ 8 µg/mL); in assay [13] it was 13.2 µM (≈ 32 µg/mL); in assay [14] it was 26.4 µM (≈ 64 µg/mL); in assay [15], 3.3 µM (≈ 8 µg/mL); against Escherichia coli PCOS 15 it was 26.4 µM (≈ 64 µg/mL). Besides, the MIC in assay [16] was 26.4 µM (≈ 64 µg/mL); in the assay on Escherichia coli M5306 it was 1.65 µM (≈ 4 µg/mL); in assay [17], 3.3 µM (≈ 8 µg/mL); in [18], 13.2 µM (≈ 32 µg/mL); in the assay on Acinetobacter sp. M9013 it was 3.3 µM (≈ 8 µg/mL); in assay [19], ≥ 52.9 µM. Further, the minimum inhibitory concentration (MIC) was 6.61 µM (≈ 16 µg/mL) with Staphylococcus cohnii; ≥ 106 µM in assay [20]; 52.9 µM (≈ 128 µg/mL) in assay [21]; ≥ 52.9 µM in assay [22]; 6.61 µM (≈ 16 µg/mL) against Acinetobacter sp. M5949; 13.2 µM (≈ 32 µg/mL) in assay [23]. Besides, the minimum inhibitory concentration (MIC) in assay [24] is 6.61 µM (≈ 16 µg/mL); in assay [25], 3.3 µM (≈ 8 µg/mL); in assay [26], 3.3 µM (≈ 8 µg/mL); in the assay on Escherichia coli M9884 it was 13.2 µM (≈ 32 µg/mL); in the assay with Acinetobacter sp. M9665, 13.2 µM (≈ 32 µg/mL); in assay [27], ≥ 106 µM.
As for `CC[C@H](C)[C@H](NC(=O)[C@H](CCCCN)NC(=O)[C@H](CCCN=C(N)N)NC(=O)[C@H](CC(C)C)NC(=O)[C@H](Cc1ccccc1)NC(=O)[C@H](CCCN=C(N)N)NC(=O)CNC(=O)[C@H](Cc1ccccc1)NC(=O)[C@H](CCCN=C(N)N)NC(=O)CNC(=O)[C@H](CCCN=C(N)N)NC(=O)[C@H](CCC(N)=O)NC(=O)[C@@H](NC(=O)[C@@H](N)CC(C)C)C(C)C)C(=O)O` [LVQRGRFGRFLRKI], the MIC in assay [28] is 32 µM (≈ 55.9 µg/mL); in assay [29], ≥ 32 µM; in assay [6] it was 11.3 µM and 32 µM; in assay [8] it was 22.6 µM and 32 µM; in [30] it was 16 µM (≈ 27.9 µg/mL); in assay [31] it was 16 µM and ≥ 32 µM. Besides, the MIC in [32] is 22.6 µM and ≥ 32 µM.
